{
  "source": "patent US20160331716A1",
  "about": "“MOLECULAR TARGETS FOR HEALING OR TREATING WOUNDS” (UNIVERSITY COLLEGE CARDIFF CONSULTANTS LIMITED, priority 2011, published 2016)",
  "key": {"[1]": {"test": "In vivo tolerance test in CD-1 athymic", "conditions": "intraperitoneal, daily, ~10 mg/kg body weight", "protocol": "(§1) The first tolerance test was conducted on the CD-1 athymic (Charles River Laboratories). Briefly, CD-1 of 4-6 weeks old, 20 g in weight, were housed in filter topped cages. Sodium stibogluconate a known PTPRK inhibitor was injected, via the intraperitoneal route, on a daily basis. The compound was given at 100 final concentration (equivalent to ˜10 mg/kg body weight) in 100 ul in volume. CD-1 were observed daily, weighed twice weekly. An additional tolerance and efficacy test was carried out using the db/db strain.\nas §1, with “conducted” for “conducted on”, “stibogluconate” for “stibogluconate a known PTPRK inhibitor”, “10” for “˜10”"}, "db/db mice": {"test_system": "db/db mice", "test": "In vivo efficacy test, ear-punch wound healing in diabetic db/db", "conditions": "for rate of wound healing: 2-100 mg/ml", "text": "(§2) The diabetic strain of db/db was obtained from Harlan. 4-6 weeks old with body weight at 20 g were used. Creation of a wound was according to a recently described method. Briefly, after being housed for a week, the db/db were first ear-pieced using an puncher, in order to create a wound (hole) of 1 mm in diameter. The following day after wound creation, all the db/db were weighed and the wound was photographed using a digital camera. Treatment was given systemically (by IP injection) or topically (by manually applying the compound in gel into the wound area). Both treatments were given every other day, twice weekly or weekly. Images were obtained weekly. The size of the wounds was determined using an image analysis software and is shown here as the area in pixels.\nFormulation of the Compounds. • 1. For systemic application, Sodium stibogluconate was dissolved in BSS and diluted in the same for the required concentration. The solutions were prepared that each 100 ul contained the correct amount of compounds and was aliquatted and stored as such at −20° C. until used. The compound was injected every other day by the IP route. • 2. For topical application, we used two carrier gels that are currently used in wound care, namely Bactroban and Aquagel. From the concentrated master stock of Sodium stibogluconate, 100 ul of the stock solution was mixed with 2 grams of the respective gels, followed by low speed homogenisation using a hand held homogeniser, for 2 minutes. […] For use, small amount (150 ul) of the gel was applied to the wound area and gently rubbed in using fingers. • 3. […] Sodium stibogluconate increased the rate of wound healing without producing any side effects. • Sodium stibogluconate was given systemically, at 100 uM.\nUsing the same db/db mice, we further tested the possible dose response by applying stibogluconate at 2 mg/ml. 20 mg/ml and 100 mg/ml, using topical applications. At the same time, we tested two treatment methods: applying the agent on a weekly basis or twice weekly basis. We determined the size of the wound on a weekly basis. […] Using a Two-way ANOVA (Holm-Sidak model), it was shown that in both treatment regimes, there was a highly significant difference between the treatment group and control group, p=0.013, […] and 0.009, control vs 2 mg/ml, 20 mg/ml and 100 mg respectively, for the twice weekly treatment, and p=0.05, 0.013, 0.009 for the weekly treatment group."}, "HECV cells": {"test_system": "HECV cells", "test": "ECIS cell adhesion assay, HECV endothelial cells", "format": "cell-based, human", "protocol": "HaCaT, a human keratinocyte cell line was purchased from the German Cancer Centre, HECV, a human vascular endothelial cells from Interlab, Milan, Italy, DB/DB mice from Harlan UK.\nHaCaT and HECV cells, which were positive for PTPRK, were transfected with anti-PTPRK transgenes by way of electroporation (270 v). After selection with a selection medium (DMEM with 10 ug/ml blasticidin) for 10 days, clones of selected cells were pooled and used for subsequent analysis.\n(§3) Three models of ECIS instrument were used: ECIS 9600 for screening and ECIS1600R and ECIS Z8 for modelling. In all systems, 8W10 arrays were used (Applied Biophysics Inc., Troy, N.Y., USA) (Giaever and Keese 1991, Kees et al 2004). Following treating the array surface with a Cysteine solution (or array stabilization procedure for ECIS Z8), the arrays were incubated with complete medium for 1 hr Electric changes were continuously monitored for up to 24 hrs. In the 9600 system, the monitoring was at fixed […]. In the 1600R and ECIS Zθ systems, cells were monitored at 62.5, 125, 250, 500, 1,000, 2,000, 4,000, 8,000, 16,000, 32,000 and 64,000 Hz. The adhesion was analysed by the integrated Rb modelling method."}, "[2]": {"test": "Tolerance in db/db during wound healing study", "format": "in vivo, mice", "conditions": "systemic, every other day, two week period", "protocol": "as §1, §2\nFormulation of the Compounds. • 1. For systemic application, Sodium stibogluconate was dissolved in BSS and diluted in the same for the required concentration. The solutions were prepared that each 100 ul contained the correct amount of compounds and was aliquatted and stored as such at −20° C. until used. The compound was injected every other day by the IP route. • 2. For topical application, we used two carrier gels that are currently used in wound care, namely Bactroban and Aquagel. From the concentrated master stock of Sodium stibogluconate, 100 ul of the stock solution was mixed with 2 grams of the respective gels, followed by low speed homogenisation using a hand held homogeniser, for 2 minutes. […]"}, "HaCaT cells": {"test_system": "HaCaT cells", "test": "ECIS wounding (migration) assay, HaCaT keratinocytes", "format": "cell-based, human", "conditions": "over a range of concentrations", "protocol": "as §3\nUsing the ECIS Theta96 model, we tested the response of cells to stibugluconate over a range of concentrations. HaCaT cells responded over the range of concentrations tested in that there was an increase in cell adhesion between 0.16-20 uM with 20 uM showing the maximum effects, FIGS. 5 & 6. Likewise, the cells also responded to stibogluconate by increasing their migration from concentrations as low as 160 nM to 100 uM, FIGS. 7, 8 & 9."}},
  "data": [
    {"molecule": "O.O.O.O.O.O.O.O.O.O=C([O-])[C@@H]1[O][Sb]2([O-])([O][Sb]34([OH])[O][C@H]([C@H](O)CO)[C@H]([O]3)[C@H](C(=O)[O-])[O]4)[O][C@H]([C@H](O)CO)[C@@H]1[O]2.[Na+].[Na+].[Na+]", "note": "[stibogluconate, Sodium stibogluconate]", "values": [
      {"measurement": "tolerance in vivo", "setting": "[1]", "result": "Well Tolerated"},
      {"measurement": "wound size versus control group", "setting": "db/db mice; systemic (IP) at 100 uM, after one week", "result": "smaller than the control group"},
      {"measurement": "twice weekly versus weekly administration, rate of wound healing", "setting": "db/db mice; topical", "result": "marginally more effective"},
      {"measurement": "rate of wound healing", "setting": "db/db mice; topical, twice weekly application", "result": "rapid rate of wound healing"},
      {"measurement": "rate of wound healing", "setting": "db/db mice; topical, weekly application", "result": "rapid rate of wound healing"},
      {"measurement": "effect of interrupting the treatment regimen on healing", "setting": "db/db mice; treatment removed between third and fourth week, weekly or twice weekly regimen", "result": "adversely affects the healing process"},
      {"measurement": "cell adhesion to the surface of the electrode (ECIS)", "setting": "HECV cells; HECV/WT treated with stibogluconate", "result": "rapid adhesion"},
      {"measurement": "response to stibogluconate of HECV/PTPRKrib cells compared with HECV/WT", "setting": "HECV cells; PTPRK knock-down cells, ECIS adhesion", "result": "markedly reduced"},
      {"measurement": "side effects", "setting": "[2]", "result": "did not observe any side effects"},
      {"measurement": "tolerance", "setting": "[2]", "result": "well tolerated"},
      {"measurement": "weight loss", "setting": "[2]", "result": "no weight loss"},
      {"measurement": "effect on the migration of the cells (keratinocytes)", "setting": "HaCaT cells", "result": "concentration dependent effect"}
    ]}
  ]
}
